In patent US20060079696A1, “Substituted compounds derived from N-(benzyl)phenylacetamide, preparation and uses” (GENFIT, priority 2004, published 2006):

The molecules below were run against T1, ATP-dependent potassium channels (K+ATP) (Rattus norvegicus, UniProt Q09429) (assay: [3H]glibenclamide binding to ATP-dependent potassium channels of rat cerebral cortex). Conditions: 1 h; 300 nM; specific displacement of [3H]glibenclamide 0.1 nM; read-out: KATP binding (300 nM).
T1 construct: the potassium channels derive from a rat's cerebral cortex; tissue CEREP; host or cells: rat cerebral cortex
Experimental: The results shown reflect the specific affinity of the inventive compounds on the ATP-dependent (K^+ATP) potassium channels. The specific binding measured corresponds to the difference between the total binding and the non-specific binding determined in the presence of an excess of non-marked reference ligand (glibenclamide 1 μM). The inventive compounds were tested at doses between 3 and 300 nM: the higher the percentage measured, the stronger the affinity of the compound for the ATP-dependent potassium channels.
The binding test was carried out at CEREP (Celle L'Evescault, France (86)) according to a protocol inspired by Angel et al. (Angel and Bidet 1991): the potassium channels derive from a rat's cerebral cortex and the reference compound is [^3H]glibenclamide at 0.1 nM. The protocol consists of incubation at 22° C. for one hour.

T1 sequence (Q09429 whole entry): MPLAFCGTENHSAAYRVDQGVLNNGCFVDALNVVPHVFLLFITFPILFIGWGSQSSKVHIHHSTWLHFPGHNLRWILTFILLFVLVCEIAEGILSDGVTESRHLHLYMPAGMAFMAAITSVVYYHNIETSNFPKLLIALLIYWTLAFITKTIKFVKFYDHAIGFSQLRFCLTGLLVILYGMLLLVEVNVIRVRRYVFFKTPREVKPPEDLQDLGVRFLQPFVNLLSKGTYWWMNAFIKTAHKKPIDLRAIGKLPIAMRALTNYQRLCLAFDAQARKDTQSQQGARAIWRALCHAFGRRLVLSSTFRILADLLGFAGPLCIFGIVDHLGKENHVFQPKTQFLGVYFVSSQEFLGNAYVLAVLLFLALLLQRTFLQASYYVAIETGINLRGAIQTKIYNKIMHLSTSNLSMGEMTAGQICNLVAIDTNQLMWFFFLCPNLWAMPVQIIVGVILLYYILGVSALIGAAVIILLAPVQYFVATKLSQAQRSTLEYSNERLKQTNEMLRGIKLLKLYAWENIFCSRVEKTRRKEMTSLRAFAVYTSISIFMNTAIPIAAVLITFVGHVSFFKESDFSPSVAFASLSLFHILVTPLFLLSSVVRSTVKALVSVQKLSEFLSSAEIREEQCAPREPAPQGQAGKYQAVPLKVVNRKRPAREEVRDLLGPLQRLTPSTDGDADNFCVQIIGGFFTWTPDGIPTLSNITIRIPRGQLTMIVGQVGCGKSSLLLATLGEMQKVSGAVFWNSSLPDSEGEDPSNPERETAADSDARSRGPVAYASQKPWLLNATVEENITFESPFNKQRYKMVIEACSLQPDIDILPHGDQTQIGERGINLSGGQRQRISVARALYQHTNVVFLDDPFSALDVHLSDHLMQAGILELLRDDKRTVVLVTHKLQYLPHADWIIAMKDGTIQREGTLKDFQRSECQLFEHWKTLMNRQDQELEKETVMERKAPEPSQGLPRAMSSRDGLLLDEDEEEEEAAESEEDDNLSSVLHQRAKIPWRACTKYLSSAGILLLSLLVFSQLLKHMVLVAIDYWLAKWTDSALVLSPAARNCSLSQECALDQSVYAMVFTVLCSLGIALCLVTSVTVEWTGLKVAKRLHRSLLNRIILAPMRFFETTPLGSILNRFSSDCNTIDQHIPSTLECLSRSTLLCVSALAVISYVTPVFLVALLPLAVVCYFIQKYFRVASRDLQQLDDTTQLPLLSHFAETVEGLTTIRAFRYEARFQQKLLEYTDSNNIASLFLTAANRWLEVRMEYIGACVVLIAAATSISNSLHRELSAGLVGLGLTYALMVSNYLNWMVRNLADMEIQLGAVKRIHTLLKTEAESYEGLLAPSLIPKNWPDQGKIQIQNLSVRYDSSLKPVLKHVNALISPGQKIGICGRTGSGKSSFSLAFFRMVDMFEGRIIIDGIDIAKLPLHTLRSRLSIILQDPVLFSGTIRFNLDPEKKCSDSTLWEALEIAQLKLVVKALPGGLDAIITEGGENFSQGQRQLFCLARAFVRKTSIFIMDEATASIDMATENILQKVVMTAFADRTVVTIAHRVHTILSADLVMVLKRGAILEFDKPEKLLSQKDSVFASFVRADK
T1 sequence (P70673 whole entry partner): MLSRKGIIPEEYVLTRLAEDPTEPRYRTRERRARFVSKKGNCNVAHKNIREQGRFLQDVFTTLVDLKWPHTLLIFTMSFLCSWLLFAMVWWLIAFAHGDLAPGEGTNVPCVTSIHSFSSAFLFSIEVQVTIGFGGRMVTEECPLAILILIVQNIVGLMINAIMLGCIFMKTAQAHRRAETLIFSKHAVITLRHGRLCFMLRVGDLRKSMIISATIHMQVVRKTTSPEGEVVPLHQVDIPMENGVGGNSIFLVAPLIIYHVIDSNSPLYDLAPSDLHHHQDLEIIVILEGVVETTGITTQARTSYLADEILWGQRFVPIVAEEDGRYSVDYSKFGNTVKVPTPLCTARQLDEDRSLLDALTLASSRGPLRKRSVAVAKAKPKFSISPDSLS

Row | inhibition at 0.3 µM | SMILES
1 | 76% | CC(C)CC(NC(=O)Cc1ccc(OC(C)(C)C(=O)O)cc1)c1ccccc1N1CCCC1 (stereo not drawn) [Compound 16, 2-[4-[1-(3-methyl-1-(2-(1-pyrrolidinyl)phenyl)butyl)aminocarbonylmethyl]phenoxy]-2-methylpropanoic acid]
2 | 69% | CC(C)CC(NC(=O)Cc1ccc(OC(C)(C)C(=O)O)cc1)c1ccccc1N1CCCCCC1 (stereo not drawn) [Compound 18, 2-[4-[1-(3-methyl-1-(2-(1-hexamethyleneimino)phenyl)butyl)aminocarbonylmethyl]phenoxy]-2-methylpropanoic acid]
3 | 88% | CC(C)CC(NC(=O)Cc1ccc(OC(C)(C)C(=O)O)cc1)c1cc(Cl)ccc1N1CCCCC1 (stereo not drawn) [Compound 22, 2-[4-[1-(3-methyl-1-(2-(1-piperidinyl)-5-(chloro)phenyl)butyl)aminocarbonylmethyl]phenoxy]-2-methylpropanoic acid]
4 | 97% | CC(C)CC(NC(=O)Cc1ccc(OCC(=O)O)cc1)c1ccccc1N1CCCCC1 (stereo not drawn) [Compound 23, 2-[4-[1-(3-methyl-1-(2-(1-piperidinyl)phenyl)butyl)aminocarbonylmethyl]phenoxy]acetic acid]
5 | 93% | CC(C)CC(NC(=O)Cc1ccc(OC(C)C(=O)O)cc1)c1ccccc1N1CCCCC1 (stereo not drawn) [Compound 24, 2-[4-[1-(3-methyl-1-(2-(1-piperidinyl)phenyl)butyl)aminocarbonylmethyl]phenoxy]propanoic acid]
6 | 15% | CC(C)CC(NC(=O)Cc1cccc(OC(C)(C)C(=O)O)c1)c1ccccc1N1CCCCC1 (stereo not drawn) [Compound 29, 2-[3-[1-(3-methyl-1-(2-(1-piperidinyl)phenyl)butyl)aminocarbonylmethyl]phenoxy]-2-methylpropanoic acid]
7 | 76% | CC(C)CC(NC(=O)Cc1ccc(OC(C)(C)C(=O)O)cc1)c1cc(Br)ccc1N1CCCCC1 (stereo not drawn) [Compound 37, 2-[4-[1-(3-methyl-1-(2-(1-piperidinyl)-5-(bromo)phenyl)butyl)aminocarbonylmethyl]phenoxy]-2-methylpropanoic acid]
8 | 94% | CC(C)CC(NC(=O)Cc1ccc(OC(C)(C)C(=O)NS(C)(=O)=O)cc1)c1ccccc1N1CCCCC1 (stereo not drawn) [Compound 58, N-[methylsulfonyl]-2-[4-[1-(3-methyl-1-(2-(1-piperidinyl)phenyl)butyl)aminocarbonylmethyl]phenoxy]-2-methylpropanamide]

Second part, the molecule before the results:

Row | SMILES | inhibition at 0.3 µM
9 | CC(C)(Oc1ccc(CC(=O)NC(c2ccccc2)c2ccccc2N2CCCCC2)cc1)C(=O)O (stereo not drawn) [Compound 3, 2-[4-[1-(1-phenyl-1-(2-(1-piperidinyl)phenyl)methyl)aminocarbonylmethyl]phenoxy]-2-methylpropanoic acid] | 75%
10 | CC(C)(Oc1ccc(CC(=O)NC(c2ccccc2N2CCCCC2)C2CCCCC2)cc1)C(=O)O (stereo not drawn) [Compound 6, 2-[4-[1-(1-cyclohexyl-1-(2-(1-piperidinyl)phenyl)methyl)aminocarbonylmethyl]phenoxy]-2-methylpropanoic acid] | 47%
11 | CC(C)CC(NC(=O)Cc1ccc(OC(C)(C)C(=O)O)cc1)c1cccc(N2CCCCC2)c1 (stereo not drawn) [Compound 8, 2-[4-[1-(3-methyl-1-(3-(1-piperidinyl)phenyl)butyl)aminocarbonylmethyl]phenoxy]-2-methylpropanoic acid] | 48%
12 | CCN(CC)c1ccccc1C(CC(C)C)NC(=O)Cc1ccc(OC(C)(C)C(=O)O)cc1 (stereo not drawn) [Compound 20, 2-[4-[1-(3-methyl-1-(2-(diethylamino)phenyl)butyl)aminocarbonylmethyl]phenoxy]-2-methylpropanoic acid] | 85%
13 | CCC(Oc1ccc(CC(=O)NC(CC(C)C)c2ccccc2N2CCCCC2)cc1)C(=O)O (stereo not drawn) [Compound 25, 2-[4-[1-(3-methyl-1-(2-(1-piperidinyl)phenyl)butyl)aminocarbonylmethyl]phenoxy]butanoic acid] | 91%
14 | CC(C)CC(NC(=O)Cc1ccc(OC(C(=O)O)C(C)C)cc1)c1ccccc1N1CCCCC1 (stereo not drawn) [Compound 26, 2-[4-[1-(3-methyl-1-(2-(1-piperidinyl)phenyl)butyl)aminocarbonylmethyl]phenoxy]-3-methylbutanoic acid] | 92%
15 | CC(C)CC(NC(=O)Cc1ccc(OC(C(=O)O)c2ccccc2)cc1)c1ccccc1N1CCCCC1 (stereo not drawn) [Compound 27, 2-[4-[1-(3-methyl-1-(2-(1-piperidinyl)phenyl)butyl)aminocarbonylmethyl]phenoxy]-2-phenylacetic acid] | 95%
16 | CCCCC(c1ccccc1N1CCCCC1)N(CC(C)C)C(=O)Cc1ccc(OC(C)(C)C(=O)O)cc1 (stereo not drawn) [Compound 35, 2-[4-[N-isobutyl-N-(1-(2-(1-piperidinyl)phenyl)pentyl)aminocarbonylmethyl]phenoxy]-2-methylpropanoic acid] | 22%
17 | CCCCC(NC(=O)Cc1ccc(OC(C)(C)C(=O)O)cc1)c1ccccc1S(=O)(=O)c1ccccc1 (stereo not drawn) [Compound 41, 2-[4-[1-(1-(2-(phenylsulfonyl)phenyl)pentyl)aminocarbonylmethyl]phenoxy]-2-methylpropanoic acid] | 12%
18 | CCCCC(NC(=O)Cc1ccc(OC(C)(C)C(=O)O)cc1)c1ccccc1O (stereo not drawn) [Compound 44, 2-[4-[1-(1-(2-(hydroxy)phenyl)pentyl)aminocarbonylmethyl]phenoxy]-2-methylpropanoic acid] | 48%
19 | CC(C)(Oc1ccc(CC(=O)NC(CCc2ccccc2)c2ccccc2N2CCCCC2)cc1)C(=O)O (stereo not drawn) [Compound 51, 2-[4-[1-(3-phenyl-1-(2-(1-piperidinyl)phenyl)propyl)aminocarbonylmethyl]phenoxy]-2-methylpropanoic acid] | 32%
20 | CC(C)CC(NC(=O)Cc1ccc(OC(C)(C)C(=O)O)c(Cl)c1)c1ccccc1N1CCCCC1 (stereo not drawn) [Compound 56, 2-[2-chloro-4-[1-(3-methyl-1-(2-(1-piperidinyl)phenyl)butyl)aminocarbonylmethyl]phenoxy]-2-methylpropanoic acid] | 49%
21 | CC(C)(Oc1ccc(CC(=O)NC(Cc2ccccc2)c2ccccc2N2CCCCC2)cc1)C(=O)NS(C)(=O)=O (stereo not drawn) [Compound 62, N-[methylsulfonyl]-2-[4-[1-(2-phenyl-1-(2-(1-piperidinyl)phenyl)ethyl)aminocarbonylmethyl]phenoxy]-2-methylpropanamide] | 46%
